Values of other authors, collected in patent US10696827B2, “Polyolefin composition comprising an antimicrobial additive” (SABIC GLOBAL TECHNOLOGIES B.V., priority 2015, dated 2020).

Test system: Staphylococcus aureus
Conditions: >0.4% of additive in LDPE catheter, rabbits, subcutaneous

## CCCCCCc1ccc(O)cc1O [4-n-hexyl resorcinol]
  infection: little to no infection
